From patent US7825160B2, “(Biphenyl) carboxylic acids and derivatives thereof” (Cellzome Limited, priority 2004, dated 2010)

How the values were obtained:
γ-secretase activity = experiment: Screening for γ-secretase-modulating activity in SKN neuroblastoma cells carrying APP swedish mutant; type: cell-based; conditions: read-out: IC50 on the γ-secretase activity, Activity range
Protocol: Screening was carried out using SKN neuroblastoma cells carrying the APP-“swedish mutant” (point mutations at position 595 and 596, numbering based on APP695) grown in DMEM/NUT-mix F12 (HAM) provided by Gibco (cat no. 31330-38) containing 5% Serum/Fe supplemented with 1% non-essential amino acids, 100 U/ml Pen/Strep.
Cells were grown to near confluency.
The screening was performed using the assay as described in Citron et al (1997) Nature Medicine 3: 67.
IC50-Values of Selected Compounds of the Invention on the γ-Secretase Activity.

Cyclooxygenase-1 (Cox-1) = target: T1, Cyclooxygenase-1 (Cox-1) (Ovis aries, UniProt P05979); experiment: Colorimetric Cox inhibitor screening assay (Cayman), Cox-1; type: biochemical
T1 construct: purchased Cayman Chemical Company 760111
T1 sequence (P05979 25-600): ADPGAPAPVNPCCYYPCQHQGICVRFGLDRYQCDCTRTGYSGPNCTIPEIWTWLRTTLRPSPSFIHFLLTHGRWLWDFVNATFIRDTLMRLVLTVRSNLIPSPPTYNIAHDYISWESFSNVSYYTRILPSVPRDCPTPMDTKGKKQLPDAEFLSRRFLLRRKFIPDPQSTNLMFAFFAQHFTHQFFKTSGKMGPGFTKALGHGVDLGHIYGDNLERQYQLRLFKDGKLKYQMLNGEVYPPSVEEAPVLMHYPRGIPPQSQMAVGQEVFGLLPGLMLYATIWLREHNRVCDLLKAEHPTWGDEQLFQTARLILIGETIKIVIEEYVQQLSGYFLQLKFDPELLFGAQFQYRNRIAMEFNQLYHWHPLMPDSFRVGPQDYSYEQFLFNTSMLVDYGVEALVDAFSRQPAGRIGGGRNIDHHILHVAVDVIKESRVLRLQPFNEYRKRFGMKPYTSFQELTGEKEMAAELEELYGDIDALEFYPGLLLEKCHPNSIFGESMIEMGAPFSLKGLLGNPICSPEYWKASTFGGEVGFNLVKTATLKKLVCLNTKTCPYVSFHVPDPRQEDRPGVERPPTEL
Protocol: (§1) Determination of the Effect of the Compounds According to the Invention on Cyclooxygenase-1 and Cyclooxygenase-2 (Cox-1, Cox-2)
(§2) Inhibition of Cox-1 and Cox-2 was determined using the Colorimetric Cox inhibitor screening assay provided by Cayman Chemical Company, Ann Arbor, Mich., USA. (Cat. No. 760111) according to manufacturer's instructions.

Cyclooxygenase-2 (Cox-2) = target: T2, Cyclooxygenase-2 (Cox-2) (Ovis aries, UniProt P79208); experiment: Colorimetric Cox inhibitor screening assay (Cayman), Cox-2; type: biochemical
T2 construct: purchased Cayman Chemical Company 760111
T2 sequence (P79208 17-603): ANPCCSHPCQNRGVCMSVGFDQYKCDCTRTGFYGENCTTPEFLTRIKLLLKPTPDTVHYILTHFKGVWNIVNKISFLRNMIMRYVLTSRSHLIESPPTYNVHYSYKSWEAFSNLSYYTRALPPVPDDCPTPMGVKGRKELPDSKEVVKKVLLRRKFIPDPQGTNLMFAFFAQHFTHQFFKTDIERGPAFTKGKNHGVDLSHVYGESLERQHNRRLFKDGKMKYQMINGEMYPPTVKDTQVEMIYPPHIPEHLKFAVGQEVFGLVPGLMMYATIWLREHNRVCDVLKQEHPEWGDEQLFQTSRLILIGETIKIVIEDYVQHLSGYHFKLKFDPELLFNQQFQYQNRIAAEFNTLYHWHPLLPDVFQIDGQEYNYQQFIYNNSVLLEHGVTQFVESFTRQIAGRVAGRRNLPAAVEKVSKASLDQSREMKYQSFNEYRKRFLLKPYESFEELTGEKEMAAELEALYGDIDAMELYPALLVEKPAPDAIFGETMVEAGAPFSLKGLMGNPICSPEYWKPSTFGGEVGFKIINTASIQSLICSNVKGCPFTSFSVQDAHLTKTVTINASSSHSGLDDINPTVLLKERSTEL
Protocol: as §1, §2

Row | SMILES | IC50 (γ-secretase activity) [nM] | inhibition at 100 µM (Cyclooxygenase-1 (Cox-1)) [%] | inhibition at 100 µM (Cyclooxygenase-2 (Cox-2)) [%]
1 | O=C(O)Cc1cc(OCc2ccc(F)cc2)cc(-c2ccc(C(F)(F)F)cc2)c1 [I, [5-(4-Fluoro-benzyloxy)-4′-trifluoromethyl-biphenyl-3-yl]-acetic acid] | 1000 to 10000 | < 50 | < 50
2 | O=C(O)Cc1cc(OCc2ccc(C(F)(F)F)cc2)cc(-c2ccc(C(F)(F)F)cc2)c1 [III, [4′-Trifluoromethyl-5-(4-trifluoromethyl-benzyloxy)-biphenyl-3-yl]-acetic acid] | < 1000 | < 50 | < 50
3 | O=C(O)Cc1cc(OCc2ccccc2)cc(-c2cc(Cl)cc(Cl)c2)c1 [IX, (5-Benzyloxy-3′,5′-dichloro-biphenyl-3-yl)-acetic acid] | 1000 to 10000 | < 50 | < 50
4 | O=C(O)Cc1cc(OCC2CCCCC2)cc(-c2ccc(C(F)(F)F)cc2)c1 [V, (5-Cyclohexylmethoxy-4′-trifluoromethyl-biphenyl-3-yl)-acetic acid] | < 1000 | < 50 | < 50
5 | O=C(O)Cc1cc(OCc2ccc(S(=O)(=O)N3CCCC3)cc2)cc(-c2ccc(C(F)(F)F)cc2)c1 [VI, {5-[4-(Pyrrolidine-1-sulfonyl)-benzyloxy]-4′-trifluoromethyl-biphenyl-3-yl}-acetic acid] | 1000 to 10000 | < 50 | < 50
6 | CCCC(C(=O)O)c1cc(OCc2ccccc2)cc(-c2ccc(C(F)(F)F)cc2)c1 (stereo not drawn) [VIII, 2-(5-Benzyloxy-4′-trifluoromethyl-biphenyl-3-yl)-pentanoic acid] | < 1000 | < 50 | < 50
7 | O=C(O)Cc1cc(OCc2ccccc2)cc(-c2ccc(C(F)(F)F)cc2)c1 [X, (5-Benzyloxy-4′-trifluoromethyl-biphenyl-3-yl)-acetic acid] | 1000 to 10000 | < 50 | < 50
8 | O=C(O)Cc1cc(OCc2ccccc2)cc(-c2ccc(OC(F)(F)F)cc2)c1 [XIII, (5-Benzyloxy-4′-trifluoromethoxy-biphenyl-3-yl)-acetic acid] | 1000 to 10000 | < 50 | < 50
9 | CC(C(=O)O)c1cc(OCc2ccccc2)cc(-c2ccc(C(F)(F)F)cc2)c1 (stereo not drawn) [XIX, 2-(5-Benzyloxy-4′-trifluoromethyl-biphenyl-3-yl)-propionic acid] | 1000 to 10000 | < 50 | < 50

Now from value to compound:

Row | IC50 (γ-secretase activity) [nM] | inhibition at 100 µM (Cyclooxygenase-1 (Cox-1)) [%] | inhibition at 100 µM (Cyclooxygenase-2 (Cox-2)) [%] | SMILES
10 | 1000 to 10000 | < 50 | < 50 | CCCC(C(=O)O)c1cc(OCC2CC2)cc(-c2ccc(C(F)(F)F)cc2)c1 (stereo not drawn) [XL, 2-(5-Cyclopropylmethoxy-4′-trifluoromethyl-biphenyl-3-yl)-pentanoic acid]
11 | 1000 to 10000 | < 50 | < 50 | O=C(O)Cc1cc(OCC2CC2)cc(-c2ccc(C(F)(F)F)cc2)c1 [XLII, (5-Cyclopropylmethoxy-4′-trifluoromethyl-biphenyl-3-yl)-acetic acid]
12 | 1000 to 10000 | < 50 | < 50 | O=C(O)Cc1cc(OCc2cc(Cl)cc(Cl)c2)cc(-c2ccc(C(F)(F)F)cc2)c1 [XLIV, [5-(3,5-Dichloro-benzyloxy)-4′-trifluoromethyl-biphenyl-3-yl]-acetic acid]
13 | 1000 to 10000 | < 50 | < 50 | CN(C)S(=O)(=O)c1ccc(COc2cc(CC(=O)O)cc(-c3ccc(C(F)(F)F)cc3)c2)cc1 [XLVI, [5-(4-Dimethylsulfamoyl-benzyloxy)-4′-trifluoromethyl-biphenyl-3-yl]-acetic acid]
14 | 1000 to 10000 | < 50 | < 50 | CC(Oc1cc(CC(=O)O)cc(-c2ccc(C(F)(F)F)cc2)c1)c1ccccc1 (stereo not drawn) [XLVII, [5-(1-Phenyl-ethoxy)-4′-trifluoromethyl-biphenyl-3-yl]-acetic acid]
